Data on 18 molecules can be found in US5521156A, “Cyclic neurokinin A antagonists” (priority 1994, dated 1996).

Where a SMILES comes first, the peptide text is derived from it. [ ]: non-standard residue; d: D form. Phe(4-NO2) = N[C@@H](Cc1ccc([N+](=O)[O-])cc1)C(=O)O; Phe(4-Cl) = N[C@@H](Cc1ccc(Cl)cc1)C(=O)O; Phe(4-NH2) = Nc1ccc(C[C@H](N)C(=O)O)cc1

As usually defined, the IC50 is the concentration that inhibits the measured activity by half. Low values mean greater potency, high ones weaker potency.

In experiment [1] the target is T1, human jejunal NK-2 receptor (Homo sapiens, UniProt P21452).
T1 construct: expressed in transfected cells; host or cells: HSKR-1 (mouse 3T3 fibroblasts)
T1 sequence (P21452 1-398): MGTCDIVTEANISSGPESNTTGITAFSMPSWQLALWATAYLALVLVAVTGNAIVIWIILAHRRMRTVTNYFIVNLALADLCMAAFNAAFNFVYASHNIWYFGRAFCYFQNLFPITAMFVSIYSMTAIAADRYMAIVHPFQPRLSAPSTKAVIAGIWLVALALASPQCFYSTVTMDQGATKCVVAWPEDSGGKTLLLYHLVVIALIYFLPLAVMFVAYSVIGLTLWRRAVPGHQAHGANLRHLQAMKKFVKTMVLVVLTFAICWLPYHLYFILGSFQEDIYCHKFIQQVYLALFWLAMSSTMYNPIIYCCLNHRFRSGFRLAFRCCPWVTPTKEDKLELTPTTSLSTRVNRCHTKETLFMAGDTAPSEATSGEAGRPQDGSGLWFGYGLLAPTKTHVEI
The experiment can be described thus: NK-2 receptor binding (125I-neurokinin A) in HSKR-1 cell membranes. Conditions: HSKR-1 cells (mouse 3T3 fibroblasts expressing human jejunal NK-2 receptor); 0.1 nM 125I-iodohistidyl-1-neurokinin A; mean ± S.E.M. On the procedure: (§1) Receptor binding assays were performed in crude tissue membranes. The NK-1 receptor binding affinity of proposed tachykinin antagonists was evaluated in guinea pig lungs (Keystone Biologicals, Cleveland, OH, kept frozen at -80° C. until use). Affinity for the NK-2 receptor was evaluated in HSKR-1 cells which are mouse 3T3 fibroblasts expressing the human jejunal NK-2 receptor. Tissues or cells were homogenized with a Polytron in 15 volumes of 50 mM Tris-HCl buffer (pH 7.4, 4° C.) containing 120 mM NaCl and 5 mM KCl and centrifuged at 48,000×g for 12 min. at 4° C. The pellet was resuspended in 15 volumes of 50 mM Tris-HCl buffer containing 10 mM EDTA and 300 mM KCl then set on ice for 30 min. The suspension was cetrifuged as above and the pellet washed by resuspension and cetrifugation two additional times in 50 mM Tris-HCl buffer (pH 7.4, 4° C.). The final pellet was resuspended in a concentration of 20 mg/ml in incubation buffer then kept at room temperature for at least 15 min prior to use. Receptor binding was initiated by addition of 250 μl membrane preparation (final protein concentration; lungs=286 μg/tube, HSKR-1 cells=100 μg/tube) in duplicate to 0.1 nM of the following radioligands: for NK-1 receptor assays, ^125 I-Bolton-Hunter Lys-3 labeled substance P (New England Nuclear, specific activity, 2200 Ci/mmol); for NK-2 receptor assays, ^125 iodohistidyl-1-neurokinin A (Amersham, specific activity, 2000 Ci/mmol) in a final volume of 500 μl of buffer containing 50 mM Tris-HCl (pH 7.4 at room temperature), 0.1% bovine serum albumin, 2 mM MnCl2, 40 μg/ml bacitracin, 4 μg/ml leupeptin and chymostatin, 1 μM thiorphan and various doses of the tachykinin antagonists. Incubations were performed at room temperature for 90 min (NK-1 receptor assays) or 2 hr (NK-2 receptor assays); binding was terminated by addition of 50 mM Tris-HCl buffer (pH 7.4, 4° C.) and filtration under vacuum through GF/B filters presoaked with 0.1% polyethyleneimine (NK-1 receptor assays) or 0.5% bovine serum albumin (NK-2 receptor assays). Nonspecific binding was defined as binding in the presence of 1 μM substance P (NK-1 receptor assays) or neurokinin A (NK-2 receptor assays) (Peptides International, Inc., Louisville, Ky.). Specific binding was calculated by subtracting nonspecific binding from total binding and corresponded to 70-90% of total binding. Data were analyzed and IC50 values generated by nonlinear regression using an iterative curve fitting program (GraphPAD Inplot, San Diego, Calif.). Protein was determined by the method of Lowry.

The target of another experiment is T2, NK-1 receptor (Cavia porcellus, UniProt P30547).
T2 construct: tissue Keystone Biologicals, Cleveland, OH; host or cells: guinea pig lung
T2 sequence (P30547 whole entry): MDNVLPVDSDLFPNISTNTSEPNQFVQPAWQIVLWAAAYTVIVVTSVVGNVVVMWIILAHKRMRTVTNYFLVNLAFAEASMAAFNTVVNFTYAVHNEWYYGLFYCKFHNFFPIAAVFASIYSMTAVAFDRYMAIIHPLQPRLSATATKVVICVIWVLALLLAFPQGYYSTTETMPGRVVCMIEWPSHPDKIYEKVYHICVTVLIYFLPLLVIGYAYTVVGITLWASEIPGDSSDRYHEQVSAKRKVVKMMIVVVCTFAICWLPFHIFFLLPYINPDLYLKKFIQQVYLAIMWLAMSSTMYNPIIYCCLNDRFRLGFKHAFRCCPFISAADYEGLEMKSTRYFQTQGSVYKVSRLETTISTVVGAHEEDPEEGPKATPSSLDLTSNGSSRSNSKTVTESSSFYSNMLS
The experiment can be described thus: NK-1 receptor binding (125I-Bolton-Hunter substance P) in guinea pig lung membranes. Conditions: 0.1 nM 125I-Bolton-Hunter Lys-3 substance P, mean ± S.E.M. On the procedure:
as §1

`CC(C)C[C@@H]1NC(=O)CNC(=O)[C@H](Cc2c[nH]c3ccccc23)NC(=O)[C@H](CCCNC(=N)N)NC(=O)[C@H](CC(C)C)NC(=O)CNC(=O)[C@H](Cc2c[nH]c3ccccc23)NC(=O)[C@H](CCCNC(=N)N)NC1=O` [cyclo[Leu-Arg-Trp-Gly-Leu-Arg-Trp-Gly]] (cyclo(GLRWGLRW)): the half-inhibitory concentration (IC50) in experiment [1] was 768 ± 75 nM.

Take `N=C(N)NCCC[C@@H]1NC(=O)[C@@H]2CCCN2C(=O)[C@@H](Cc2ccccc2)NC(=O)[C@H](Cc2ccccc2)NC(=O)CNC(=O)[C@H](Cc2ccccc2)NC1=O` [cyclo[Phe--phe--Pro--Arg--Phe--Gly], cyclo[Phe-phe-Pro-Arg-Phe-Gly]] (cyclo(FGF[dF]PR)): the results for the IC50 (on NK-1 receptor; in experiment [1]) were 9310 ± 2070 nM and 674 ± 57 nM, respectively.

Turning to `CC(C)C[C@@H]1NC(=O)[C@@H](Cc2c[nH]c3ccccc23)NC(=O)[C@H](Cc2c[nH]c3ccccc23)NC(=O)CNC(=O)[C@H](Cc2c[nH]c3ccccc23)NC(=O)[C@H](CCCNC(=N)N)NC1=O` [cyclo[Trp--trp--Leu--Arg--Trp--Gly], cyclo[Trp-trp-Leu-Arg-Trp-Gly]] (cyclo(GW[dW]LRW)), the results for the concentration for half-maximal inhibition (IC50) (at NK-1 receptor; in experiment [1]) were 4830 ± 297 nM and 4.7 ± 0.15 nM, respectively.

In the case of `CC(C)C[C@@H]1NC(=O)[C@H](Cc2c[nH]c3ccccc23)NC(=O)[C@H](Cc2ccc(O)cc2)NC(=O)CNC(=O)[C@H](Cc2c[nH]c3ccccc23)NC(=O)[C@H](CCCNC(=N)N)NC1=O` [cyclo[Tyr--Trp--Leu--Arg--Trp--Gly]] (cyclo(GYWLRW)), the figures for the half-inhibitory concentration (IC50) (at NK-1 receptor; in experiment [1]) were 10000 nM and 305 ± 31 nM, respectively.

Regarding `C[C@@H]1NC(=O)[C@@H](Cc2c[nH]c3ccccc23)NC(=O)[C@H](Cc2ccc(O)cc2)NC(=O)CNC(=O)[C@H](Cc2c[nH]c3ccccc23)NC(=O)[C@H](CCCNC(=N)N)NC1=O` [cyclo[Tyr--trp--Ala--Arg--Trp--Gly], cyclo[Tyr-trp-Ala-Arg-Trp-Gly]] (cyclo(ARWGY[dW])), the concentration for half-maximal inhibition (IC50) in experiment [1] stood at 56.7 ± 5.45 nM.

As for `CC(C)C[C@@H]1NC(=O)[C@@H](Cc2c[nH]c3ccccc23)NC(=O)[C@H](Cc2ccc(O)cc2)NC(=O)[C@H](Cc2c[nH]c3ccccc23)NC(=O)CNC(=O)[C@H](CCCNC(=N)N)NC1=O` [cyclo[Tyr--trp--Leu--Arg--Gly--Trp], cyclo[Tyr-trp-Leu-Arg-Gly-Trp]] (cyclo(GWY[dW]LR)), the IC50 in experiment [1] came out at 360 ± 21 nM.

`CC(C)C[C@@H]1NC(=O)[C@@H](Cc2c[nH]c3ccccc23)NC(=O)[C@H](Cc2ccc(O)cc2)NC(=O)[C@H](C)NC(=O)[C@H](Cc2c[nH]c3ccccc23)NC(=O)[C@H](CCCNC(=N)N)NC1=O` [cyclo[Tyr--trp--Leu--Arg--Trp--Ala], cyclo[Tyr-trp-Leu-Arg-Trp-Ala]] (cyclo(AY[dW]LRW)) displayed an IC50 in experiment [1] of 9.9 ± 0.9 nM. Against the preceding molecule, the IC50 is about 36-fold lower.

For the molecule `CC(C)C[C@@H]1NC(=O)[C@@H](Cc2c[nH]c3ccccc23)NC(=O)[C@H](Cc2ccc(O)cc2)NC(=O)[C@@H]2CCCN2C(=O)[C@H](Cc2c[nH]c3ccccc23)NC(=O)[C@H](CCCNC(=N)N)NC1=O` [cyclo[Tyr--trp--Leu--Arg--Trp--Pro], cyclo[Tyr-trp-Leu-Arg-Trp-Pro]] (cyclo(LRWPY[dW])), the IC50 at NK-1 receptor amounted to 5170 ± 507 nM; in experiment [1] it was 30 ± 2.52 nM.

`CC(C)C[C@@H]1NC(=O)[C@@H](Cc2c[nH]c3ccccc23)NC(=O)[C@H](Cc2ccc(O)cc2)NC(=O)[C@@H](C)NC(=O)[C@H](Cc2c[nH]c3ccccc23)NC(=O)[C@H](CCCNC(=N)N)NC1=O` [cyclo[Tyr--trp--Leu--Arg--Trp--ala]] (cyclo(LRW[dA]Y[dW])) returned an IC50 in experiment [1] of 7.99 ± 1.02 nM.

For `CC(C)C[C@@H]1NC(=O)[C@@H](Cc2c[nH]c3ccccc23)NC(=O)[C@H](Cc2ccc(O)cc2)NC(=O)[C@H](C)NC(=O)[C@H](Cc2ccc(O)cc2)NC(=O)[C@H](CCCNC(=N)N)NC1=O` [cyclo[Tyr--trp--Leu--Arg--Tyr--Ala], cyclo[Tyr-trp-Leu-Arg-Tyr-Ala]] (cyclo(AY[dW]LRY)), the IC50 in experiment [1] stood at 206 ± 15 nM.

With `CC(C)C[C@@H]1NC(=O)[C@@H](Cc2c[nH]c3ccccc23)NC(=O)[C@H](Cc2ccc(O)cc2)NC(=O)CNC(=O)[C@H](Cc2ccc(O)cc2)NC(=O)[C@H](CCCNC(=N)N)NC1=O` [cyclo[Tyr--trp--Leu--Arg--Tyr--Gly], cyclo[Tyr-trp-Leu-Arg-Tyr-Gly]] (cyclo(GY[dW]LRY)), the values for the IC50 (on NK-1 receptor; in experiment [1]) were above 10000 nM and 18.9 ± 1.58 nM, respectively.

Regarding `CC(C)C[C@@H]1NC(=O)[C@@H](Cc2c[nH]c3ccccc23)NC(=O)[C@H](Cc2ccc(O)cc2)NC(=O)CNC(=O)[C@@H](Cc2c[nH]c3ccccc23)NC(=O)[C@H](CCCNC(=N)N)NC1=O` [cyclo[Tyr--trp--Leu--Arg--trp--Gly]] (cyclo(GY[dW]LR[dW])), the IC50 was above 10000 nM at NK-1 receptor and 193 ± 11.5 nM in experiment [1].

For the molecule `N=C(N)NCCC[C@@H]1NC(=O)[C@@H]2CCCN2C(=O)[C@@H](Cc2c[nH]c3ccccc23)NC(=O)[C@H](Cc2ccc(O)cc2)NC(=O)CNC(=O)[C@H](Cc2c[nH]c3ccccc23)NC1=O` [cyclo[Tyr--trp--Pro--Arg--Trp--Gly], cyclo[Tyr-trp-Pro-Arg-Trp-Gly]] (cyclo(GY[dW]PRW)), the figures for the IC50 (at NK-1 receptor; in experiment [1]) were above 10000 nM and 5.13 ± 0.36 nM, respectively.

As to `CC(C)C[C@@H]1NC(=O)[C@@H](Cc2c[nH]c3ccccc23)NC(=O)[C@H](Cc2ccc(O)cc2)NC(=O)CNC(=O)[C@H](Cc2ccc(Cl)cc2)NC(=O)[C@H](CCCNC(=N)N)NC1=O` [cyclo[Tyr-trp-Leu-Arg-(p-Cl-Phe)-Gly]] (cyclo(GY[dW]LR[Phe(4-Cl)])), the IC50 is around 10000 nM at NK-1 receptor and 13.3 ± 1.31 nM in experiment [1].

As for `CC(C)C[C@@H]1NC(=O)[C@@H](Cc2c[nH]c3ccccc23)NC(=O)[C@H](Cc2ccc(O)cc2)NC(=O)CNC(=O)[C@H](Cc2ccc(N)cc2)NC(=O)[C@H](CCCNC(=N)N)NC1=O` [cyclo[Tyr-trp-Leu-Arg-(p-NH2 -Phe)-Gly]] (cyclo(GY[dW]LR[Phe(4-NH2)])), the 50% inhibitory concentration (IC50) at NK-1 receptor is above 10000 nM; in experiment [1], 20.2 ± 2.03 nM.

Consider `CC(C)C[C@@H]1NC(=O)[C@@H](Cc2c[nH]c3ccccc23)NC(=O)[C@H](Cc2ccc(O)cc2)NC(=O)CNC(=O)[C@H](Cc2ccc([N+](=O)[O-])cc2)NC(=O)[C@H](CCCNC(=N)N)NC1=O` [cyclo[Tyr-trp-Leu-Arg-(p-NO2 -Phe)-Gly]] (cyclo(GY[dW]LR[Phe(4-NO2)])), for which the IC50 was above 10000 nM on NK-1 receptor and 11.7 ± 0.44 nM in experiment [1].

As for `CC(C)C[C@@H]1NC(=O)[C@H](CCC(N)=O)NC(=O)[C@@H](Cc2ccc(O)cc2)NC(=O)CNC(=O)[C@H](Cc2c[nH]c3ccccc23)NC(=O)[C@H](CCCNC(=N)N)NC1=O` [cyclo[tyr--Gln--Leu--Arg--Trp--Gly], cyclo[tyr-Gln-Leu-Arg-Trp-Gly]] (cyclo(G[dY]QLRW)), the IC50 in experiment [1] came out at 407 ± 52 nM.

As for `CC(C)C[C@@H]1NC(=O)[C@@H](Cc2c[nH]c3ccccc23)NC(=O)[C@@H](Cc2ccc(O)cc2)NC(=O)CNC(=O)[C@H](Cc2c[nH]c3ccccc23)NC(=O)[C@H](CCCNC(=N)N)NC1=O` [cyclo[tyr--trp--Leu--Arg--Trp--Gly]] (cyclo(G[dY][dW]LRW)), the IC50 is above 10000 nM on NK-1 receptor and 4.97 ± 0.42 nM in experiment [1].
